Experimental data from patent US20260347338A1, “PYRIMIDINE/PYRIDINE DERIVATIVES OR SALTS THEREOF AND PHARMACEUTICAL COMPOSITIONS COMPRISING THE SAME” (YUHAN CORPORATION, priority 2023, published 2026).
Where a name gives a salt, the structure may show the parent alone.

target: T1, human recombinant HPK1 (Homo sapiens, UniProt Q92918); experiment: Inhibitory activity against human recombinant HPK1 (TR-FRET); type: biochemical; conditions: ULight-p70S6K peptide, ATP at Km, room temperature, 1 hour, 0.32 to 1000 nM compound
T1 construct: purchased BPS Bioscience
T1 sequence (Q92918 whole entry): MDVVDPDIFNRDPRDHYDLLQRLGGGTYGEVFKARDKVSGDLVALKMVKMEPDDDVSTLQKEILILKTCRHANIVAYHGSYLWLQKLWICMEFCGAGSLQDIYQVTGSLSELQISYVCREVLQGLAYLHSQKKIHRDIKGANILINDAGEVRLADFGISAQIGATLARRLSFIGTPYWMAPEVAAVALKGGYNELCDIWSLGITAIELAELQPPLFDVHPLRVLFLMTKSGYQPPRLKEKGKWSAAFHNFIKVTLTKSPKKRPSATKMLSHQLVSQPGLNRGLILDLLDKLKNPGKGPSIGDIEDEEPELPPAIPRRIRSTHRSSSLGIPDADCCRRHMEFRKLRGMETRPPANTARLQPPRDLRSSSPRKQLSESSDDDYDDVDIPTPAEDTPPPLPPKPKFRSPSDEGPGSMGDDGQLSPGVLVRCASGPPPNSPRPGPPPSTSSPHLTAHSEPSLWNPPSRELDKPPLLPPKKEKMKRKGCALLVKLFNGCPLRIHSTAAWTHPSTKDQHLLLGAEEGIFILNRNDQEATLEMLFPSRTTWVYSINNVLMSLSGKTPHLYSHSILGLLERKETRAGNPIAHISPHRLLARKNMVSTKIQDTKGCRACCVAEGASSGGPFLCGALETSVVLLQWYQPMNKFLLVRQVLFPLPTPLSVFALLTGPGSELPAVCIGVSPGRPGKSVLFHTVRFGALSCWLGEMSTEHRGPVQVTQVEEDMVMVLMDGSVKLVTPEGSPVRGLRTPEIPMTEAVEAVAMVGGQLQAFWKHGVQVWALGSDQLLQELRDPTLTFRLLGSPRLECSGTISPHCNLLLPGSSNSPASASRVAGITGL
Procedure, shortened: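 IC50 classes A–D use 10, 50 and 100 nM cut-offs, derived from TR-FRET signal inhibition relative to DMSO controls. Human recombinant HPK1 phosphorylated ULight-p70S6K peptide at Km ATP for 1 h, room temperature, pH 7.4; test range 0.32–1000 nM final, detection with Eu-labelled antibody after EDTA quench.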

| SMILES | IC50 [nM] |
| --- | --- |
| CNC(=O)c1cc(F)c(-c2nccc(Nc3cc(N4CCC[C@H](N)C4)c(-c4cnn(C(F)F)c4)cn3)n2)c(OC)c1 [Example 186, (S)-4-(4-((4-(3-aminopiperidin-1-yl)-5-(1-(difluoromethyl)-1H-pyrazol-4-yl)pyridin-2-yl)amino)pyrimidin-2-yl)-3-fluoro-5-methoxy-N-methylbenzamide hydrochloride] | ≤ 10 |
| COc1cc(C(=O)N(C)C)cc(F)c1-c1nccc(Nc2cc(N3CCC[C@H](N)C3)c(-c3cnn(C(F)F)c3)cn2)n1 [Example 187, (S)-4-(4-((4-(3-aminopiperidin-1-yl)-5-(1-(difluoromethyl)-1H-pyrazol-4-yl)pyridin-2-yl)amino)pyrimidin-2-yl)-3-fluoro-5-methoxy-N,N-dimethylbenzamide hydrochloride] | ≤ 10 |
| OC1CN(Cc2csc(-c3nccc(Nc4cc(N5CCC[C@H](O)C5)c(-c5cnn(C6CCOCC6)c5)cn4)n3)c2)C1 [Example 188, (S)-1-(2-((2-(4-((3-hydroxyazetidin-1-yl)methyl)thiophen-2-yl)pyrimidin-4-yl)amino)-5-(1-(tetrahydro-2H-pyran-4-yl)-1H-pyrazol-4-yl)pyridin-4-yl)piperidin-3-ol] | 10 to 50 |
| COc1cc(C=O)cc(F)c1-c1nccc(Nc2cc(N3CCC[C@H](O)C3)c(-c3cnn(C4CCOCC4)c3)cn2)n1 [Example 189, (S)-3-fluoro-4-(4-((4-(3-hydroxypiperidin-1-yl)-5-(1-(tetrahydro-2H-pyran-4-yl)-1H-pyrazol-4-yl)pyridin-2-yl)amino)pyrimidin-2-yl)-5-methoxybenzaldehyde] | ≤ 10 |
| CNCc1cc(F)c(-c2nccc(Nc3cc(N4CCC[C@H](O)C4)c(-c4cnn(C5CCOCC5)c4)cn3)n2)c(OC)c1 [Example 190, (S)-1-(2-((2-(2-fluoro-6-methoxy-4-((methylamino)methyl)phenyl)pyrimidin-4-yl)amino)-5-(1-(tetrahydro-2H-pyran-4-yl)-1H-pyrazol-4-yl)pyridin-4-yl)piperidin-3-ol] | ≤ 10 |
| COc1cccc(F)c1-c1nc(Nc2cc(N3CCC[C@H](O)C3)c(C(N)=O)cn2)ccc1[N+](=O)[O-] [Example 191, 6-((6-(2-fluoro-6-methoxyphenyl)-5-nitropyridin-2-yl)amino)-4-((S)-3-hydroxypiperidin-1-yl)nicotinamide] | ≤ 10 |
| COc1cccc(F)c1-c1nccc(Nc2cc(N3CCC[C@H](O)C3)c(C(=O)N[C@@H]3CCN(C)C3)cn2)n1 [Example 192, 6-((2-(2-fluoro-6-methoxyphenyl)pyrimidin-4-yl)amino)-4-((S)-3-hydroxypiperidin-1-yl)-N-((R)-1-methylpyrrolidin-3-yl)nicotinamide] | 10 to 50 |
| COc1cccc(F)c1-c1nc(Nc2cc(N3CCC[C@H](O)C3)c(C(N)=O)cn2)ccc1N [Example 193, 6-((5-amino-6-(2-fluoro-6-methoxyphenyl)pyridin-2-yl)amino)-4-((S)-3-hydroxypiperidin-1-yl)nicotinamide] | ≤ 10 |
| COc1cccc(F)c1-c1nc(Nc2cc(N3CCC[C@H](O)C3)c(C(=O)N[C@@H]3CC[C@@H](O)C3)cn2)ccc1[N+](=O)[O-] [Example 194, 6-((6-(2-fluoro-6-methoxyphenyl)-5-nitropyridin-2-yl)amino)-N-((1R,3R)-3-hydroxycyclopentyl)-4-((S)-3-hydroxypiperidin-1-yl)nicotinamide] | ≤ 10 |
| COc1cccc(F)c1-c1nc(Nc2cc(N3CCC[C@H](O)C3)c(C(=O)NC3CC(O)C3)cn2)ccc1[N+](=O)[O-] (stereo partly drawn) [Example 196, 6-((6-(2-fluoro-6-methoxyphenyl)-5-nitropyridin-2-yl)amino)-N-(3-hydroxycyclobutyl)-4-((S)-3-hydroxypiperidin-1-yl)nicotinamide] | ≤ 10 |
| COc1cccc(F)c1-c1nc(Nc2cc(N3CCC[C@H](O)C3)c(C(=O)N[C@@H]3CC[C@H]3O)cn2)ccc1[N+](=O)[O-] [Example 197, 6-((6-(2-fluoro-6-methoxyphenyl)-5-nitropyridin-2-yl)amino)-N-((1R,2R)-2-hydroxycyclobutyl)-4-((S)-3-hydroxypiperidin-1-yl)nicotinamide] | ≤ 10 |
| COc1cccc(F)c1-c1nc(Nc2cc(N3CCC[C@H](O)C3)c(C(=O)NC3CC(F)(F)C3)cn2)ccc1[N+](=O)[O-] [Example 198, N-(3,3-difluorocyclobutyl)-6-((6-(2-fluoro-6-methoxyphenyl)-5-nitropyridin-2-yl)amino)-4-((S)-3-hydroxypiperidin-1-yl)nicotinamide] | ≤ 10 |

The next lines start with the values.

| IC50 [nM] | SMILES |
| --- | --- |
| ≤ 10 | COc1cc(F)cc(F)c1-c1nccc(Nc2cc(N3CCC[C@H](O)C3)c(-c3cnn(CC(F)F)c3)cn2)n1 [Example 172, (S)-1-(2-((2-(2,4-difluoro-6-methoxyphenyl)pyrimidin-4-yl)amino)-5-(1-(2,2-difluoroethyl)-1H-pyrazol-4-yl)pyridin-4-yl)piperidin-3-ol] |
| ≤ 10 | COc1cccc(F)c1-c1nc(Nc2cc(N3CCC[C@H](N)C3)c(-c3cnn(C(F)(F)F)c3)cn2)ccc1N [Example 173, N^2-(4-((S)-3-aminopiperidin-1-yl)-5-(1-(trifluoromethyl)-1H-pyrazol-4-yl)pyridin-2-yl)-6-(2-fluoro-6-methoxyphenyl)pyridin-2,5-diamine hydrochloride] |
| ≤ 10 | COc1cc(F)cc(F)c1-c1nccc(Nc2cc(N3CCC[C@H](O)C3)c(-c3cnn(CC(F)(F)F)c3)cn2)n1 [Example 174, (S)-1-(2-((2-(2,4-difluoro-6-methoxyphenyl)pyrimidin-4-yl)amino)-5-(1-(2,2,2-trifluoroethyl)-1H-pyrazol-4-yl)pyridin-4-yl)piperidin-3-ol] |
| ≤ 10 | COc1cccc(F)c1-c1nccc(Nc2cc(N3CCC[C@H](N)C3)c(-c3cnn(CC(F)(F)F)c3)nn2)n1 [Example 175, (S)-5-(3-aminopiperidin-1-yl)-N-(2-(2-fluoro-6-methoxyphenyl)pyrimidin-4-yl)-6-(1-(2,2,2-trifluoroethyl)-1H-pyrazol-4-yl)pyridazin-3-amine hydrochloride] |
| ≤ 10 | COc1cccc(F)c1-c1nccc(Nc2cc(N3CCC[C@H](N)C3)c(-c3ccc(C(=O)N4CCN(C)CC4)cc3)cn2)n1 [Example 176, (S)-(4-(4-(3-aminopiperidin-1-yl)-6-((2-(2-fluoro-6-methoxyphenyl)pyrimidin-4-yl)amino)pyridin-3-yl)phenyl)(4-methylpiperazin-1-yl)methanone hydrochloride] |
| ≤ 10 | COc1cccc(F)c1-c1nc(Nc2cc(N3CCC[C@H](O)C3)c(-c3cnn(C4CCOCC4)c3)cn2)ccc1N [Example 177, (3S)-1-(2-((5-amino-6-(2-fluoro-6-methoxyphenyl)pyridin-2-yl)amino)-5-(1-(tetrahydro-2H-pyran-4-yl)-1H-pyrazol-4-yl)pyridin-4-yl)piperidin-3-ol] |
| ≤ 10 | COc1cccc(F)c1-c1nc(Nc2cc(N3CCC[C@H](O)C3)c(-c3cnn(C(F)(F)F)c3)cn2)ccc1N [Example 178, (3S)-1-(2-((5-amino-6-(2-fluoro-6-methoxyphenyl)pyridin-2-yl)amino)-5-(1-(trifluoromethyl)-1H-pyrazol-4-yl)pyridin-4-yl)piperidin-3-ol] |
| ≤ 10 | COc1cccc(F)c1-c1nc(Nc2cc(N3CCC[C@H](O)C3)c(-c3cnn(CC(F)F)c3)cn2)ccc1N [Example 179, (3S)-1-(2-((5-amino-6-(2-fluoro-6-methoxyphenyl)pyridin-2-yl)amino)-5-(1-(2,2-difluoroethyl)-1H-pyrazol-4-yl)pyridin-4-yl)piperidin-3-ol] |
| ≤ 10 | COc1cccc(F)c1-c1nc(Nc2cc(N3CCC[C@H](O)C3)c(-c3cnn(CC(F)(F)F)c3)cn2)ccc1N [Example 180, (3S)-1-(2-((5-amino-6-(2-fluoro-6-methoxyphenyl)pyridin-2-yl)amino)-5-(1-(2,2,2-trifluoroethyl)-1H-pyrazol-4-yl)pyridin-4-yl)piperidin-3-ol] |
| ≤ 10 | COc1cccc(F)c1-c1nc(Nc2cc(N3CCC[C@H](N)C3)c(-c3cnn(C4CCOCC4)c3)cn2)ccc1N [Example 181, N^2-(4-((S)-3-aminopiperidin-1-yl)-5-(1-(tetrahydro-2H-pyran-4-yl)-1H-pyrazol-4-yl)pyridin-2-yl)-6-(2-fluoro-6-methoxyphenyl)pyridin-2,5-diamine hydrochloride] |
| ≤ 10 | COc1cc(F)cc(F)c1-c1nccc(Nc2cc(N3CCC[C@H](O)C3)c(-c3cnn(C(F)F)c3)cn2)n1 [Example 182, (S)-1-(2-((2-(2,4-difluoro-6-methoxyphenyl)pyrimidin-4-yl)amino)-5-(1-(difluoromethyl)-1H-pyrazol-4-yl)pyridin-4-yl)piperidin-3-ol] |
| ≤ 10 | COc1cc(F)cc(F)c1-c1nc(Nc2cc(N3CCC[C@H](O)C3)c(-c3cnn(C(F)F)c3)cn2)ccc1[N+](=O)[O-] [Example 183, (3S)-1-(2-((6-(2,4-difluoro-6-methoxyphenyl)-5-nitropyridin-2-yl)amino)-5-(1-(difluoromethyl)-1H-pyrazol-4-yl)pyridin-4-yl)piperidin-3-ol] |
| ≤ 10 | COc1cc(F)cc(F)c1-c1nc(Nc2cc(N3CCC[C@H](O)C3)c(-c3cnn(C(F)F)c3)cn2)ccc1N [Example 184, (3S)-1-(2-((5-amino-6-(2,4-difluoro-6-methoxyphenyl)pyridin-2-yl)amino)-5-(1-(difluoromethyl)-1H-pyrazol-4-yl)pyridin-4-yl)piperidin-3-ol] |
| ≤ 10 | COC(=O)c1cc(F)c(-c2nccc(Nc3cc(N4CCC[C@H](N)C4)c(-c4cnn(C(F)F)c4)cn3)n2)c(OC)c1 [Example 185, methyl (S)-4-(4-((4-(3-aminopiperidin-1-yl)-5-(1-(difluoromethyl)-1H-pyrazol-4-yl)pyridin-2-yl)amino)pyrimidin-2-yl)-3-fluoro-5-methoxybenzoate hydrochloride] |
